In US20230123334A1, “AMINO LIPID COMPOUND, PREPARATION METHOD THEREFOR, AND APPLICATION THEREOF” (SHENZHEN SHENXIN BIOTECHNOLOGY CO., LTD., priority 2020, published 2023):

Each compound was assayed on HEK293 cells (assay: Preliminary screening as mRNA vectors, EGFP mRNA transfection of HEK293 cells). Details: EGFP mRNA 50 ng per well, 96-well plates; percentage of GFP fluorescent cells relative to total number of cells (Hoechst).
Type: cell-based
Experimental: Cell line: HEK293 cells (ATCC CRL-1573™)
Medium: DMEM supplemented with 10% fetal bovine serum (Invitrogen)
Screening: cell transfection on 96-well plates
Detection (readout): percentage of the number of GFP fluorescent cells relative to the total number of cells (the total number of cells was determined using nucleus dye Hoechst). Lipofectamine2000 (Invitrogen) was used as the positive control.
Method: the experimental method was basically the same with Example 4, and the mass of EGFP mRNA (TriLink) for transfection was 50 ng per well.

SMILES | Absolute mRNA transfection efficiency in HEK293 cells
CCCCCCCCCCCNc1nc(NCCN(C)C)nc(SCCCCCC)n1 [Compound D1S6N11] | 1.0%
CCCCCCCCCCCCNc1nc(NCCN(C)C)nc(SCCCCCC)n1 [Compound D1S6N12] | 0.0%
CCCCCCCCCCCCCNc1nc(NCCN(C)C)nc(SCCCCCC)n1 [Compound D1S6N13] | 1.8%
CCCCCCCCCCCCCCCNc1nc(NCCN(C)C)nc(SCCCCCC)n1 [Compound D1S6N15] | 3.6%
CCCCCCCCCCCCCCCCNc1nc(NCCN(C)C)nc(SCCCCCC)n1 [Compound D1S6N16] | 3.3%
CCCCCCCCCCCCCCCCCCNc1nc(NCCN(C)C)nc(SCCCCCC)n1 [Compound D1S6N18] | 32.7%
CCCCCCSc1nc(NCCN(C)C)nc(SCCCCCC)n1 [Compound D1S6S6] | 0.7%
CCCCCCCSc1nc(NCCN(C)C)nc(SCCCCCC)n1 [Compound D1S6S7] | 1.0%
CCCCCCCCSc1nc(NCCN(C)C)nc(SCCCCCC)n1 [Compound D1S6S8] | 0.7%
CCCCCCCCCSc1nc(NCCN(C)C)nc(SCCCCCC)n1 [Compound D1S6S9] | 2.3%
CCCCCCCCCCSc1nc(NCCN(C)C)nc(SCCCCCC)n1 [Compound D1S6S10] | 0.7%
CCCCCCCCCCCSc1nc(NCCN(C)C)nc(SCCCCCC)n1 [Compound D1S6S11] | 0.4%
CCCCCCCCCCCCSc1nc(NCCN(C)C)nc(SCCCCCC)n1 [Compound D1S6S12] | 0.6%
CCCCCCCCCCCCCCSc1nc(NCCN(C)C)nc(SCCCCCC)n1 [Compound D1S6S14] | 0.8%
CCCCCCCCCCCCCCCSc1nc(NCCN(C)C)nc(SCCCCCC)n1 [Compound D1S6S15] | 1.2%
CCCCCCCCCCCCCCCCSc1nc(NCCN(C)C)nc(SCCCCCC)n1 [Compound D1S6S16] | 0.9%
CCCCCCCCCCCCCCCCCCSc1nc(NCCN(C)C)nc(SCCCCCC)n1 [Compound D1S6S18] | 15.9%
CCCCCCCSc1nc(NCCCCCC)nc(NCCN(C)C)n1 [Compound D1S7N6] | 5.1%
CCCCCCCNc1nc(NCCN(C)C)nc(SCCCCCCC)n1 [Compound D1S7N7] | 4.4%
CCCCCCCCNc1nc(NCCN(C)C)nc(SCCCCCCC)n1 [Compound D1S7N8] | 2.0%
CCCCCCCCCNc1nc(NCCN(C)C)nc(SCCCCCCC)n1 [Compound D1S7N9] | 10.0%
CCCCCCCCCCCNc1nc(NCCN(C)C)nc(SCCCCCCC)n1 [Compound D1S7N11] | 5.8%
CCCCCCCCCCCCNc1nc(NCCN(C)C)nc(SCCCCCCC)n1 [Compound D1S7N12] | 5.4%
CCCCCCCCCCCCCNc1nc(NCCN(C)C)nc(SCCCCCCC)n1 [Compound D1S7N13] | 12.8%

SMILES | Absolute mRNA transfection efficiency in HEK293 cells
CCCCCCCCCCCCCCCNc1nc(NCCN(C)C)nc(SCCCCCCC)n1 [Compound D1S7N15] | 21.3%
CCCCCCCCCCCCCCCCNc1nc(NCCN(C)C)nc(SCCCCCCC)n1 [Compound D1S7N16] | 29.5%
CCCCCCCCCCCCCCCCCCNc1nc(NCCN(C)C)nc(SCCCCCCC)n1 [Compound D1S7N18] | 35.7%
CCCCCCCSc1nc(NCCN(C)C)nc(SCCCCCCC)n1 [Compound D1S7S7] | 14.9%
CCCCCCCCSc1nc(NCCN(C)C)nc(SCCCCCCC)n1 [Compound D1S7S8] | 16.7%
CCCCCCCCCSc1nc(NCCN(C)C)nc(SCCCCCCC)n1 [Compound D1S7S9] | 8.1%
CCCCCCCCCCSc1nc(NCCN(C)C)nc(SCCCCCCC)n1 [Compound D1S7S10] | 5.6%
CCCCCCCCCCCSc1nc(NCCN(C)C)nc(SCCCCCCC)n1 [Compound D1S7S11] | 4.1%
CCCCCCCCCCCCSc1nc(NCCN(C)C)nc(SCCCCCCC)n1 [Compound D1S7S12] | 3.1%
CCCCCCCCCCCCCCSc1nc(NCCN(C)C)nc(SCCCCCCC)n1 [Compound D1S7S14] | 3.1%
CCCCCCCCCCCCCCCSc1nc(NCCN(C)C)nc(SCCCCCCC)n1 [Compound D1S7S15] | 3.9%
CCCCCCCCCCCCCCCCSc1nc(NCCN(C)C)nc(SCCCCCCC)n1 [Compound D1S7S16] | 6.9%
CCCCCCCCCCCCCCCCCCSc1nc(NCCN(C)C)nc(SCCCCCCC)n1 [Compound D1S7S18] | 4.1%
CCCCCCCCSc1nc(NCCCCCC)nc(NCCN(C)C)n1 [Compound D1S8N6] | 2.4%
CCCCCCCCSc1nc(NCCCCCCC)nc(NCCN(C)C)n1 [Compound D1S8N7] | 2.0%
CCCCCCCCNc1nc(NCCN(C)C)nc(SCCCCCCCC)n1 [Compound D1S8N8] | 5.8%
CCCCCCCCCNc1nc(NCCN(C)C)nc(SCCCCCCCC)n1 [Compound D1S8N9] | 21.4%
CCCCCCCCCCCNc1nc(NCCN(C)C)nc(SCCCCCCCC)n1 [Compound D1S8N11] | 9.0%
CCCCCCCCCCCCNc1nc(NCCN(C)C)nc(SCCCCCCCC)n1 [Compound D1S8N12] | 17.9%
CCCCCCCCCCCCCNc1nc(NCCN(C)C)nc(SCCCCCCCC)n1 [Compound D1S8N13] | 15.5%
CCCCCCCCCCCCCCCNc1nc(NCCN(C)C)nc(SCCCCCCCC)n1 [Compound D1S8N15] | 23.8%
CCCCCCCCCCCCCCCCNc1nc(NCCN(C)C)nc(SCCCCCCCC)n1 [Compound D1S8N16] | 22.5%
CCCCCCCCCCCCCCCCCCNc1nc(NCCN(C)C)nc(SCCCCCCCC)n1 [Compound D1S8N18] | 19.3%
CCCCCCCCSc1nc(NCCN(C)C)nc(SCCCCCCCC)n1 [Compound D1S8S8] | 11.7%

SMILES | Absolute mRNA transfection efficiency in HEK293 cells
CCCCCCCCCSc1nc(NCCN(C)C)nc(SCCCCCCCC)n1 [Compound D1S8S9] | 7.4%
CCCCCCCCCCSc1nc(NCCN(C)C)nc(SCCCCCCCC)n1 [Compound D1S8S10] | 8.6%
CCCCCCCCCCCSc1nc(NCCN(C)C)nc(SCCCCCCCC)n1 [Compound D1S8S11] | 3.0%
CCCCCCCCCCCCSc1nc(NCCN(C)C)nc(SCCCCCCCC)n1 [Compound D1S8S12] | 1.4%
CCCCCCCCCSc1nc(NCCCCCC)nc(NCCN(C)C)n1 [Compound D1S9N6] | 1.1%
CCCCCCCCCSc1nc(NCCCCCCC)nc(NCCN(C)C)n1 [Compound D1S9N7] | 0.3%
CCCCCCCCCSc1nc(NCCCCCCCC)nc(NCCN(C)C)n1 [Compound D1S9N8] | 2.9%
CCCCCCCCCNc1nc(NCCN(C)C)nc(SCCCCCCCCC)n1 [Compound D1S9N9] | 8.0%
CCCCCCCCCCCNc1nc(NCCN(C)C)nc(SCCCCCCCCC)n1 [Compound D1S9N11] | 53.0%
CCCCCCCCCCCCNc1nc(NCCN(C)C)nc(SCCCCCCCCC)n1 [Compound D1S9N12] | 30.2%
CCCCCCCCCCCCCNc1nc(NCCN(C)C)nc(SCCCCCCCCC)n1 [Compound D1S9N13] | 25.8%
CCCCCCCCCCCCCCCNc1nc(NCCN(C)C)nc(SCCCCCCCCC)n1 [Compound D1S9N15] | 27.4%
CCCCCCCCCCCCCCCCNc1nc(NCCN(C)C)nc(SCCCCCCCCC)n1 [Compound D1S9N16] | 25.6%
CCCCCCCCCCCCCCCCCCNc1nc(NCCN(C)C)nc(SCCCCCCCCC)n1 [Compound D1S9N18] | 47.6%
CCCCCCCCCCSc1nc(NCCCCCC)nc(NCCN(C)C)n1 [Compound D1S10N6] | 0.4%
CCCCCCCCCCSc1nc(NCCCCCCC)nc(NCCN(C)C)n1 [Compound D1S10N7] | 0.2%
CCCCCCCCCCSc1nc(NCCCCCCCC)nc(NCCN(C)C)n1 [Compound D1S10N8] | 0.5%
CCCCCCCCCCSc1nc(NCCCCCCCCC)nc(NCCN(C)C)n1 [Compound D1S10N9] | 0.5%
CCCCCCCCCCCNc1nc(NCCN(C)C)nc(SCCCCCCCCCC)n1 [Compound D1S10N11] | 6.2%
CCCCCCCCCCCCNc1nc(NCCN(C)C)nc(SCCCCCCCCCC)n1 [Compound D1S10N12] | 2.4%
CCCCCCCCCCCCCNc1nc(NCCN(C)C)nc(SCCCCCCCCCC)n1 [Compound D1S10N13] | 1.7%
CCCCCCCCCCCCCCCNc1nc(NCCN(C)C)nc(SCCCCCCCCCC)n1 [Compound D1S10N15] | 2.8%
CCCCCCCCCCCCCCCCNc1nc(NCCN(C)C)nc(SCCCCCCCCCC)n1 [Compound D1S10N16] | 40.7%
